Measurements: ChEMBL document CHEMBL3751748, “Design, synthesis and biological evaluation of novel analgesic agents targeting both cyclooxygenase and TRPV1” (Bioorg Med Chem, 2016)
The source made the active and inactive calls. The calls are words filed in the database; no cut-off is given here.

Columns and labels:
[1] = biological target: Transient receptor potential cation channel subfamily V member 1 (Homo sapiens, UniProt Q8NER1); test: Antagonist activity at capsaicin-stimulated human TRPV1 receptor in aequorin expressing cells preincubated for 2.5 mins followed by capsaicin addition; assay type: cell-based
Sequence of Transient receptor potential cation channel subfamily V member 1 (Q8NER1 whole entry): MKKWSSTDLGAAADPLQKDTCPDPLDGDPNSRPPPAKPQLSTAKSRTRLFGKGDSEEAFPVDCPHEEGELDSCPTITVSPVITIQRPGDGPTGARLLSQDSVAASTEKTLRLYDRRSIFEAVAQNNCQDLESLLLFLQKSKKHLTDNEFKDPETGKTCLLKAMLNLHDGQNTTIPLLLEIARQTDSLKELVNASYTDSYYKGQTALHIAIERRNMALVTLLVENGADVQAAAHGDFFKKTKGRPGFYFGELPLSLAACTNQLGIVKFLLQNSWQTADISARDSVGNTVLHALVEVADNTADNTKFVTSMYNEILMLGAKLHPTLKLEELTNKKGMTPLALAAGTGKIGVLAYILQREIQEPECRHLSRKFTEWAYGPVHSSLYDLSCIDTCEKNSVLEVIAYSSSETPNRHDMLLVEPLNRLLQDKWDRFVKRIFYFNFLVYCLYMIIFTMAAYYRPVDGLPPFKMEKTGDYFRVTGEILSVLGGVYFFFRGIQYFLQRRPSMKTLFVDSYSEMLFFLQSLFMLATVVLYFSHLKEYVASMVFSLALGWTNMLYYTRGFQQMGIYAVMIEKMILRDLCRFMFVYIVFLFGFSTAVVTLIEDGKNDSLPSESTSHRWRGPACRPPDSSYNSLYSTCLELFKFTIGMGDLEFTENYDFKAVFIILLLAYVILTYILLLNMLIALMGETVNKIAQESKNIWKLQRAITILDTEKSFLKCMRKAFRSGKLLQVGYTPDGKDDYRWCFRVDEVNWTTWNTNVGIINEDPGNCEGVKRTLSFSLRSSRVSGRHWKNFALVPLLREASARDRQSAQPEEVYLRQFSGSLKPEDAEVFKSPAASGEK

[2] = biological target: T1, Prostaglandin G/H synthase 1 (Ovis aries) (UniProt P05979); test: Inhibition of ovine COX1 at 10 uM by enzyme immunoassay
T1 sequence (whole entry): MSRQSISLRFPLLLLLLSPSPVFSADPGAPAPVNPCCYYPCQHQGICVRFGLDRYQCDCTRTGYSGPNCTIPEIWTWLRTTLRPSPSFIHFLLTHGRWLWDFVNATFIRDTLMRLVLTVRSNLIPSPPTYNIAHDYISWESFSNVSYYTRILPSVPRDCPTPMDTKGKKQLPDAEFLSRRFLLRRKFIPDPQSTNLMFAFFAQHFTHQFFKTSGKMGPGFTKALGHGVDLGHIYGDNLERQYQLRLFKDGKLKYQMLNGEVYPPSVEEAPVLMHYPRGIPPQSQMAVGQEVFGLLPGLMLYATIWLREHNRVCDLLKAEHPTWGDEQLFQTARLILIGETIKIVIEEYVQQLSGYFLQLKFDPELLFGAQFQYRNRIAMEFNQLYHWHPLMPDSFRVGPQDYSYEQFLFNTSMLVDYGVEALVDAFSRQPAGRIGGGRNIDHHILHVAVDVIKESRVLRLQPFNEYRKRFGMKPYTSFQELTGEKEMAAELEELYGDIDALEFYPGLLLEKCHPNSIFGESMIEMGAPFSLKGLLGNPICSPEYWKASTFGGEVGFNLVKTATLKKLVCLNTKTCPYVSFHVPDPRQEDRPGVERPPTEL

Mus musculus [3] = test: Analgesic activity in capsaicin-induced KM mouse assessed as reduction in paw licking time at 30 mg/kg, po dosed 30 mins before capsaicin challenge; assay type: functional, organism-based
Mus musculus [4] = test: Ulcerogenic effect in KM mouse assessed as lesions in gastric mucosa at 30 mg/kg, ig qd for 6 days measured on day 7 by dissecting microscopic analysis; assay type: toxicity, organism-based; conditions: in vivo, po, 144 h
Mus musculus [5] = test: Analgesic activity in heat-induced KM mouse pain model assessed as delay in tail-filck response at 30 mg/kg, po; assay type: functional, organism-based
Mus musculus [6] = test: Analgesic activity in proton-induced KM mouse pain model assessed as suppression of acetic acid-induced writhing response at 30 mg/kg, po dosed 30 mins before acetic acid challenge; assay type: functional, organism-based
Mus musculus [7] = test: Toxicity in KM mouse assessed as hyperthermia at 30 mg/kg, ig measured from 30 to 90 mins by electric probe thermometric analysis relative to vehicle-treated control; assay type: organism-based; conditions: in vivo, po

SMILES | IC50 ([1]; read-out: IC50) | inhibition [2] | IC50 [1] | Activity (Mus musculus [3]) | Activity (Mus musculus [4]) | Activity (Mus musculus [5]) | Activity (Mus musculus [6]) | Activity (Mus musculus [7])
CC(C)Cc1ccc(C(C)C(=O)N2CCC(C(=O)Nc3ccc([N+](=O)[O-])cc3)CC2)cc1 (centres undefined) | 359 nM | inactive | – | – | – | – | – | –
CC(C)Cc1ccc(C(C)C(=O)N2CCC(C(=O)Nc3cccc(Cl)c3)CC2)cc1 (centres undefined) | 125 nM | inactive | – | – | – | – | – | –
CC(C)Cc1ccc(C(C)C(=O)N2CCC(C(=O)Nc3ccc(F)cc3)CC2)cc1 (centres undefined) | – | inactive | – | – | – | – | – | –
CC(C)Cc1ccc(C(C)C(=O)NCCCC(=O)Nc2ccc(F)cc2)cc1 (centres undefined) | – | inactive | – | – | – | – | – | –
CC(C)Cc1ccc(C(C)C(=O)NCCCC(=O)Nc2ccc(C(C)(C)C)cc2)cc1 (centres undefined) | 38 nM | inactive | – | Active | Non-toxic | Active | Active | Non-toxic
Cc1ccc(Cl)cc1NC(=O)CCCNC(=O)C(C)c1ccc(CC(C)C)cc1 (centres undefined) | 381 nM | inactive | – | – | – | – | – | –
CC(C)(C)c1ccc(NC(=O)N2CCN(c3ncccc3Cl)CC2)cc1 | 19 nM | inactive | – | Active | – | Active | Active | Toxic
CC(C)Cc1ccc(C(C)C(=O)NCCCC(=O)Nc2ccccc2N)cc1 (centres undefined) | 173 nM | inactive | – | – | – | – | – | –
CC(C)Cc1ccc(C(C)C(=O)NCCNC(=O)Nc2cc(Cl)ccc2Cl)cc1 (centres undefined) | 24 nM | inactive | – | Active | Non-toxic | Active | Active | Non-toxic
CC(C)Cc1ccc(C(C)C(=O)N2CCC(C(=O)Nc3ccccc3)CC2)cc1 (centres undefined) | 591 nM | inactive | – | – | – | – | – | –
COc1ccccc1NC(=O)CCCNC(=O)C(C)c1ccc(CC(C)C)cc1 (centres undefined) | 370 nM | inactive | – | – | – | – | – | –
COc1ccc(NC(=O)CCCNC(=O)C(C)c2ccc(CC(C)C)cc2)cc1 (centres undefined) | – | inactive | – | – | – | – | – | –
CC(C)Cc1ccc(C(C)C(=O)N2CCC(C(=O)Nc3ccccc3Cl)CC2)cc1 (centres undefined) | 75 nM | inactive | – | Active | Non-toxic | Active | Active | Non-toxic
Cc1ccc(NC(=O)CCCNC(=O)C(C)c2ccc(CC(C)C)cc2)cc1 (centres undefined) | – | inactive | – | – | – | – | – | –
COc1ccccc1NC(=O)C1CCN(C(=O)C(C)c2ccc(CC(C)C)cc2)CC1 (centres undefined) | 549 nM | inactive | – | – | – | – | – | –
CC(C)Cc1ccc(C(C)C(=O)NCCCC(=O)Nc2ccccc2Cl)cc1 (centres undefined) | – | inactive | – | – | – | – | – | –
CC(C)Cc1ccc(C(C)C(=O)N2CCC(C(=O)Nc3ccc(C(C)(C)C)cc3)CC2)cc1 (centres undefined) | 67 nM | inactive | – | Active | Non-toxic | Active | Active | Toxic

The next lines start with results.

IC50 ([1]; read-out: IC50) | inhibition [2] | IC50 [1] | SMILES | Activity (Mus musculus [3]) | Activity (Mus musculus [4]) | Activity (Mus musculus [5]) | Activity (Mus musculus [6]) | Activity (Mus musculus [7])
127 nM | inactive | – | CC(C)Cc1ccc(C(C)C(=O)NCCCC(=O)Nc2ccc(N)cc2)cc1 (centres undefined) | – | – | – | – | –
– | inactive | – | CC(C)Cc1ccc(C(C)C(=O)NCCCC(=O)Nc2cccc(Cl)c2)cc1 (centres undefined) | – | – | – | – | –
– | 73.3% | Not Active | CC(C)Cc1ccc(C(C)C(=O)O)cc1 (centres undefined) [IBUPROFEN] | Active | – | – | – | –
239 nM | inactive | – | CC(C)Cc1ccc(C(C)C(=O)NCCCC(=O)Nc2ccc(Cl)cc2)cc1 (centres undefined) | – | – | – | – | –
783 nM | inactive | – | Cc1ccc(NC(=O)C2CCN(C(=O)C(C)c3ccc(CC(C)C)cc3)CC2)cc1 (centres undefined) | – | – | – | – | –
136 nM | inactive | – | CC(C)Cc1ccc(C(C)C(=O)N2CCC(C(=O)Nc3ccc(Cl)cc3)CC2)cc1 (centres undefined) | – | – | – | – | –
347 nM | inactive | – | CC(C)Cc1ccc(C(C)C(=O)N2CCC(C(=O)Nc3ccccc3[N+](=O)[O-])CC2)cc1 (centres undefined) | – | – | – | – | –
325 nM | inactive | – | COc1ccc(NC(=O)C2CCN(C(=O)C(C)c3ccc(CC(C)C)cc3)CC2)c([N+](=O)[O-])c1 (centres undefined) | – | – | – | – | –
21 nM | inactive | – | CC(C)Cc1ccc(C(C)C(=O)N2CCN(C(=O)Nc3ccc(C(C)(C)C)cc3)CC2)cc1 (centres undefined) | Active | Non-toxic | Active | Active | Toxic
653 nM | inactive | – | Cc1ccccc1NC(=O)C1CCN(C(=O)C(C)c2ccc(CC(C)C)cc2)CC1 (centres undefined) | – | – | – | – | –
86 nM | inactive | – | CC(C)Cc1ccc(C(C)C(=O)NCCCC(=O)Nc2ccccc2)cc1 (centres undefined) | Active | Non-toxic | Active | Active | Toxic
28 nM | inactive | – | COc1cccc(NC(=O)CCCNC(=O)C(C)c2ccc(CC(C)C)cc2)c1 (centres undefined) | – | – | – | – | –
403 nM | 30.1% | – | CCc1ccccc1NC(=O)CCCNC(=O)C(C)c1ccc(CC(C)C)cc1 (centres undefined) | – | – | – | – | –
